# Source: patent US20240209028A1, “CNP COMPOUNDS” (priority 2022, published 2024)
# Like-named read-outs stand apart in the source and are kept apart here. Starred links: 1 amine or outer side, 2 acyl side, 3 side chain; linkers in the order of their positions; H or OH if unused. Positions of bridges follow the written chain, without caps; N, C: chain ends. Residues, ends and D or L forms follow the SMILES beside them. No end group written: not given here. *: point of attachment. C18 diacid = O=C(O)CCCCCCCCCCCCCCCCC(=O)*; γGlu = O=C(O)[C@H](CCC(=O)[*:2])N[*:1]; C18d = not defined here; AEEA = NCCOCCOCC(=O)O
# B1: Compound ID 9384, [N-terminal(C18d-gGlu-2xOEG-GQAP), des1-10, 13Q, 17S, 19Q, 25P, 32L]-hCNP37 (peptide)
# peptide: {C18d-γGlu-AEEA-AEEA}-GQAPGAQKKGSSQGCFGLPLDRIGSLSGLGC
# modifications: disulfide 15-31 (inferred); reading uncertain; also: printed as [N-terminal(C18d-gGlu-2xOEG-GQAP), des1-10, 13Q, 17S, 19Q, 25P, 32L]-hCNP37
# B2: Compound ID 9407, [N-terminal(C18d-5xgGlu-4xOEG), des1-5, 13Q, 19Q, 25P, 32L]-hCNP37 (peptide)
# peptide: {C18d-γGlu-γGlu-γGlu-γGlu-γGlu-AEEA-AEEA-AEEA-AEEA}-ARKYKGAQKKGLSQGCFGLPLDRIGSLSGLGC
# modifications: disulfide 16-32 (inferred); reading uncertain; also: printed as [N-terminal(C18d-5xgGlu-4xOEG), des1-5, 13Q, 19Q, 25P, 32L]-hCNP37
# B3: Compound ID 9480, [N-terminal(C18d-3xgGlu-4xOEG), des1-8, 13Q, 19Q, 25P, 32L]-hCNP37 (peptide)
# peptide: {C18d-γGlu-γGlu-γGlu-AEEA-AEEA-AEEA-AEEA}-YKGAQKKGLSQGCFGLPLDRIGSLSGLGC
# modifications: disulfide 13-29 (inferred); reading uncertain; also: printed as [N-terminal(C18d-3xgGlu-4xOEG), des1-8, 13Q, 19Q, 25P, 32L]-hCNP37
# B4: Compound ID 9435, [N-terminal(C18d-2xgGlu-4xOEG), des1-8, 13Q, 17G, 19Q, 25P, 32L]-hCNP37 (peptide)
# peptide: {C18d-γGlu-γGlu-AEEA-AEEA-AEEA-AEEA}-YKGAQKKGGSQGCFGLPLDRIGSLSGLGC
# modifications: disulfide 13-29 (inferred); reading uncertain; also: printed as [N-terminal(C18d-2xgGlu-4xOEG), des1-8, 13Q, 17G, 19Q, 25P, 32L]-hCNP37
# Tests used:
# [1] = PK after i.v. and s.c. administration to Göttingen minipig; conditions: female, in vivo, Göttingen Minipig
# Experimental: The purpose of this study was to investigate pharmacokinetic and pharmacodynamic properties after intravenous (i.v.) and subcutaneous (s.c.) administration to Gottingen Minipig and domestic LYD pig, and to estimate bioavailability after s.c. dosing. Quantitative plasma analysis of CNP and cGMP levels were performed as described in
# Animals and dosing: The pharmacokinetic and pharmacodynamic studies in Gottingen Minipig or domestic LYD pig were conducted at CRO Minerva Imaging or Novo Nordisk A/S, respectively. CNP compounds were dosed to normal female 1) Gottingen minipigs 6-12 months of age with an average weight of 22 kg or 2) domestic LYD pigs 4-5 months of age with and average weight of 80 kg. At least one week prior to dosing, permanent central venous catheters were implanted for blood sampling and intravenous (i.v.) dosing. For subcutaneous (s.c.) dosing, the pigs were ultrasound scanned and the optimal injection area laterally on the neck marked by a permanent tattoo. An insulin pen (NovoPen Echo or NovoPen 4) and insulin needle (NovoFine 32G/4 mm or NovoTwist 32G/5 mm) were used for accurate deposition of the CNP formulations in the subcutaneous fat tissue with the needle perpendicular to the skin.
# CNP compounds were formulated according to the principles in General Methods of Preparation—Method G and were either A) 8 mM sodium phosphate, 250 mM glycerol, pH 6.5, B) 5 mM sodium acetate, 250 mM glycerol, pH 4.0, C) 5 mM sodium acetate, 240 mM propylene glycol, pH=4.0, D) 8 mM sodium phosphate, 250 mM glycerol, pH 7.5 or E) 20 mM sodium phosphate, 223 mM propylene glycol, pH 6.0.
# Intravenously, the CNP compounds were dosed at 30-60 nmol/kg to Minipig and 15-43 nmol/kg to domestic pig using formulations A-E. Subcutaneously, the CNP compounds were dosed at 55-62 nmol/kg to Minipig and 20-30 nmol/kg to domestic pig using formulations A-D.
# Sampling: Blood samples of approximately 1 mL were collected pre dose and up to 14 days post dose into EDTA-coated tubes (8 mM) for cGMP and CNP compound analysis by LC-MS. In few instances, cGMP was only analysed up to 48 hours post dose after intravenous dosing in domestic LYD pig. The blood samples were kept on wet ice for maximum 30 minutes until centrifugation for 10 minutes at 4° C. and minimum 1500G, and the plasma samples were stored at −20° C. until analysis.
# Plasma concentration-time profiles were analyzed by non-compartmental PK analysis using Phoenix WinNonlin 8.1, Pharsight Inc., Mountain View, CA, USA. Calculation of the area under the plasma concentration-time curve (AUC) was based on the “linear up log down” method, and uniform weighting was used for estimation of the terminal rate constant (λz). S.c. bioavailability (F) was calculated as the dose-normalized AUC (AUC/dose) after s.c. administration divided by the AUC/dose after i.v. administration. […]
# neprilysin (NEP) [2] = biological target: T1, neprilysin (NEP) (Homo sapiens, UniProt P08473); experiment: In vitro neprilysin stability; conditions: recombinant human neprilysin (rhNEP), pH 7.4
# [3] = Local tolerance of CNP compounds in rats (s.c. injection, histopathology); format: in vivo, Sprague Dawley rat; conditions: rat, s.c. 350 μl, about 1000 nmol/ml, 5 days post injection
# Experimental: The purpose of this study was to evaluate the local tissue reaction to subcutaneous injection of CNP compounds in rats.
# Procedure: The CNP compounds were formulated according to the principles described in General Methods of Preparation-Method G. Each Sprague Dawley rat (male, 10-11 weeks of age at arrival, Janvier, France) was dosed s.c. with 250 or 350 uL of the same compound (formulation concentration of 1000 nmol/mL) 120 h prior to tissue collection resulting in a total of two injections for each animal (Table 15). Injection site (flank or neck) was alternated across animals within each group and time point.
# Animals had access to tap water and food (Altromin 1324) ad libitum. Group size was n=3 for vehicles and positive control, and n=4 for test compounds. Vehicles and compounds were formulated in either 5 mM sodium acetate, 250 mM glycerol, pH 4.0 or 8 mM sodium phosphate, 250 mM glycerol, pH 7.4 as shown in Table 16.
# The animals were anesthetized with isoflurane. Via an electric shaving machine, a squared area of fur (2 cm×2 cm) was removed either from the rats' neck or flank area). For dosing, a new injection needle (25G canula, 1 ml syringe) was placed in the middle of the square border closest to the animal's head and the needle was inserted into the skin from the border towards the center of the square. […] On the day of tissue collection, the rats were deeply anaesthetized with isoflurane and euthanized by exsanguination. The injection sites were inspected and scored with regards to pathological lesions. The injection sites were evaluated, and any changes were noted (location, colour, shape and size), and sampled for histology preparation.
# The injection sites were removed and fixed in 4% phosphate buffered neutral formaldehyde in sealed plastic containers.
# Each injection site was subsequently cut into three sections 0.8 cm, 1.0 cm and 1.2 cm from the square border where the injection needle was placed, and, respectively, these sections represented the injection sites and the adjacent tissue. The tissue was processed, embedded in paraffin and cut in 2-4 μm thin sections, stained with the haematoxylin and eosin (H&E), and evaluated microscopically with a light microscope. Histopathological changes were graded on a 5-level scale (Minimal (Min), Mild (Mil), Moderate (Mod), Marked (Mar) and Severe (Sev)).
# [4] = CNP local tolerance study in LYD pigs (s.c. injection, histopathology); format: in vivo, domestic LYD pig; conditions: LYD pig, s.c., approx. 4400 μM, 4 or 5 days after injection
# Source text: The purpose of this study was to evaluate the local tissue reaction response to subcutaneous injection of CNP compounds in pigs.
# Procedure: In domestic pigs, the injection site was subjected to histopathologic examination after subcutaneous dosing. Injections were placed mid-back between the shoulder and hip on both sides of the dorsal midline, and one or two days before injection sites of 2×2 cm were shaved and marked by permanent ink under light anaesthesia. Each injection consisted of 100 or 200 μl formulation with a concentration of approx. 4400 μM. CNP compound formulations were prepared according to the principles in General Methods of Preparation—Method G, and were either A) 8 mM sodium phosphate, 250 mM glycerol, pH 6.5, B) 5 mM sodium acetate, 250 mM glycerol, pH 4.0 or C) 5 mM sodium acetate, 240 mM propylene glycol, pH 4.0 and physiological saline was included as negative control.
# On Day 1 the pigs were lightly anaesthetised. An insulin pen (NovoPen 4) and insulin needle (NovoTwist 32G/5 mm) were used for accurate deposition of the CNP formulations in the subcutaneous fat tissue with the needle perpendicular to the skin. On Day 5 (4 days post injection) or 6 (5 days post injection), the pigs were euthanised, and the injection sites were removed and fixed in 4% phosphate buffered neutral formaldehyde in sealed plastic containers. The tissue blocks were prefixed for 2-4 hours in 10% buffered formalin, cut into 2 mm thick slabs with a multi knife, examined for macroscopic changes and finally fixed overnight in cassettes. Two slabs of tissue were selected for light microscopic evaluation where the tissue reaction was maximal or alternatively in the central part of the injection site. Three to four 2-4 μm sections were cut from three levels at 100 μm distance, stained with haematoxylin and eosin (H&E) and evaluated in a light microscope. Histopathological changes were graded on a 5-level scale ((Minimal (Min), Mild (Mil), Moderate (Mod), Marked (Mar) and Severe (Sev)). The studies are summarised in Table 18.
# Results: The results are summarised in Table 19. * Necrosis was used as a marker for local subcutaneous reactions; **NAD: No Abnormalities Detected
# neprilysin (NEP) [5] = biological target: T1, neprilysin (NEP)
# [6] = biological target: Recombinant human neprilysin (rhNEP; R&D Systems) (human) (UniProt P08473); experiment: cell-based or functional assay
# [7] = in vivo; cited from earlier work
# [8] = biological target: Recombinant human neprilysin (rhNEP; R&D Systems) (human, UniProt P08473 52-750); experiment: cell-based or functional assay
# Chain of Recombinant human neprilysin (rhNEP; R&D Systems) (P08473 52-750 limits assumed): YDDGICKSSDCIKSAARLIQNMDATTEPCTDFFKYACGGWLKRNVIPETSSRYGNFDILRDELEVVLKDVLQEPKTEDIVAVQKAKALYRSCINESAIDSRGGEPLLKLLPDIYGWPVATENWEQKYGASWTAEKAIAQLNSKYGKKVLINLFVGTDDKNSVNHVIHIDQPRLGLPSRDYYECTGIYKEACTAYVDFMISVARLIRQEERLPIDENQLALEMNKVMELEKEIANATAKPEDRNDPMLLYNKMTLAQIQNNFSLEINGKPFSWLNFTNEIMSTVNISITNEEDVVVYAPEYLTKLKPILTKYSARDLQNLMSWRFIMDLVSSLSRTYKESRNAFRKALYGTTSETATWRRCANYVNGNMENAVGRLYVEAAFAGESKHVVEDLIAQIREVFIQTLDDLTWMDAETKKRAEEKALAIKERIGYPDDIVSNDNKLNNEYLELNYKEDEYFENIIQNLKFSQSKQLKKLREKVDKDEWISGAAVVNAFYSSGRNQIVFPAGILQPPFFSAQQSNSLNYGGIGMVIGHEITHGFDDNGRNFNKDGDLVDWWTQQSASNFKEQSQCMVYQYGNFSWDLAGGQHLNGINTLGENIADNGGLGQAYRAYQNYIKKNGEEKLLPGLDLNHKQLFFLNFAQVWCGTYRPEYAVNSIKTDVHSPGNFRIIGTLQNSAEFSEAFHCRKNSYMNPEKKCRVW
# T1 sequence (P08473 whole entry): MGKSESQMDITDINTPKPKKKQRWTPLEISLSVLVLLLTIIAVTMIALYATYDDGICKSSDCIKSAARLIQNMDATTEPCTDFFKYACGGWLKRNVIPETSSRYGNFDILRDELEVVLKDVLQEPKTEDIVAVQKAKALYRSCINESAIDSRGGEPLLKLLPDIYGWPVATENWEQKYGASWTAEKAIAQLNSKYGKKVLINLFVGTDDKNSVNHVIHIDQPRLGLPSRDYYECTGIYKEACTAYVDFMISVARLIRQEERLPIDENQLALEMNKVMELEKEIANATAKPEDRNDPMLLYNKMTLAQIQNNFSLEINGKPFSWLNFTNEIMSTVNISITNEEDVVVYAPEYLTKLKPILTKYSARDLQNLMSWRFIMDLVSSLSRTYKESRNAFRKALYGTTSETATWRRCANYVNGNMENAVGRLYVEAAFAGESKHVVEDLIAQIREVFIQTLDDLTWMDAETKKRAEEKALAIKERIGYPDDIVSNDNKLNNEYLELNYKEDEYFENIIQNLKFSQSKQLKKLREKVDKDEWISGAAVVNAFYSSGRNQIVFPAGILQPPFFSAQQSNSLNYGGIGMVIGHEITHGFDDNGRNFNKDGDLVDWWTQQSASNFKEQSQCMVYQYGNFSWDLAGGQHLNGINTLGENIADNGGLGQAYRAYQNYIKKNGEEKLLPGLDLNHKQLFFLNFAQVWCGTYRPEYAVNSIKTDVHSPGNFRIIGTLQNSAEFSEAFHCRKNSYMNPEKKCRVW
# Chain of Recombinant human neprilysin (rhNEP; R&D Systems) (human) (P08473 52-750 limits assumed): as the sequence (P08473 52-750 limits assumed) above
molecule,measurement,setting,value
CC[C@H](C)[C@@H]1NC(=O)[C@H](CCCNC(=N)N)NC(=O)[C@H](CC(=O)O)NC(=O)[C@H](CC(C)C)NC(=O)[C@@H]2CCCN2C(=O)[C@H](CC(C)C)NC(=O)CNC(=O)[C@H](Cc2ccccc2)NC(=O)[C@@H](NC(=O)CNC(=O)[C@H](CCC(N)=O)NC(=O)[C@H](CO)NC(=O)[C@H](CO)NC(=O)CNC(=O)[C@H](CCCCN)NC(=O)[C@H](CCCCN)NC(=O)[C@H](CCC(N)=O)NC(=O)[C@H](C)NC(=O)CNC(=O)[C@@H]2CCCN2C(=O)[C@H](C)NC(=O)[C@H](CCC(N)=O)NC(=O)CNC(=O)COCCOCCNC(=O)COCCOCCNC(=O)CC[C@H](NC(=O)CCCCCCCCCCCCCCCCC(=O)O)C(=O)O)CSSC[C@@H](C(=O)O)NC(=O)CNC(=O)[C@H](CC(C)C)NC(=O)CNC(=O)[C@H](CO)NC(=O)[C@H](CC(C)C)NC(=O)[C@H](CO)NC(=O)CNC1=O [Compound 9384] ({C18 diacid-γGlu-AEEA-AEEA}-GQAPGAQKKGSSQGCFGLPLDRIGSLSGLGC-OH; disulfide 15-31),clearance,"[1]; iv, i.v., read-out: CL (ml/hr/kg), Intravenous PK (converted)",1.53 mL/h/kg
same,half-life,"[1]; iv, i.v., read-out: T½, iv (converted)",61 h
same,bioavailability,"[1]; sc, s.c. bioavailability, read-out: F (%), Subcutaneous PK",78%
same,half-life,"[1]; sc, s.c., read-out: T½, sc (converted)",61 h
same,"remaining at 1.5 h, 1000 nM",neprilysin (NEP) [2],87.8%
same,Number of injections by severity of necrosis: NAD (No Abnormalities Detected),[3],4
same,Number of injections by severity of necrosis: Min.,[4],1
same,Number of injections by severity of necrosis: NAD,[4],3
"CC[C@H](C)[C@@H]1NC(=O)[C@H](CCCNC(=N)N)NC(=O)[C@H](CC(=O)O)NC(=O)[C@H](CC(C)C)NC(=O)[C@H](CCCCN)NC(=O)[C@H](CC(C)C)NC(=O)CNC(=O)[C@H](Cc2ccccc2)NC(=O)[C@@H](NC(=O)CNC(=O)[C@H](CCCCN)NC(=O)[C@H](CO)NC(=O)[C@H](CC(C)C)NC(=O)CN)CSSC[C@@H](C(=O)O)NC(=O)CNC(=O)[C@H](CC(C)C)NC(=O)CNC(=O)[C@H](CO)NC(=O)[C@H](CCSC)NC(=O)[C@H](CO)NC(=O)CNC1=O [Compound ID 0065, hCNP22]",stability in the presence of recombinant human neprilysin,neprilysin (NEP) [5],rapidly degraded
"Compound ID 9483, [N-terminal(C18d-4xgGlu), 5Q, 13Q, 19S, 25P, 27E, 32L]-hCNP37 (peptide)",Remaining of parent after 90 min (%),[6],106%
wt CNP: wild-type C-type natriuretic peptide; half-life of approximately two minutes,half-life,[7],approximately two
B1,Remaining of parent after 90 min (%),[8],87.8%
B2,Remaining of parent after 90 min (%),[8],96.6%
B3,Remaining of parent after 90 min (%),[8],98.3%
"{C18d-γGlu-γGlu-γGlu-γGlu-γGlu}-QEHPQARKYKGAQKKGLSSGCFGLPLDRIGSLSGLGC (disulfide 21-37 (inferred); reading uncertain) [Compound ID 9482, [N-terminal(C18d-5xgGlu), 5Q, 13Q, 19S, 25P, 32L]-hCNP37]",Remaining of parent after 90 min (%),[8],96.3%
B4,Remaining of parent after 90 min (%),[8],93.2%
